From patent publication US20150105252A1, “SUBSTITUTED PYRAZOLES AS HERBICIDES” (E I DU PONT DE NEMOURS AND COMPANY, priority 2013, published 2015)

Key:
lambsquarters = assay: Test C preemergence; assay type: in vivo, Chenopodium album; conditions: for Lambsquarters plant response rating / Plant response rating, Lambsquarters: preemergence; for Plant response rating, Lambsquarters: scale 0 to 100, 0 = no effect, 100 = complete control
Outline: (§1)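 Visual rating, 0–100 scale (0 no effect, 100 complete control), vs untreated controls after 13–15 d greenhouse. Pre: seeds in loam/sand, treated at sowing. Post: plants in peat-based mix, 1- to 4-leaf (2–18 cm). Solvent + surfactant formulation, non-phytotoxic.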

blackgrass = assay: Test C postemergence; assay type: in vivo, Alopecurus myosuroides; conditions: for Plant response rating (scale of 0 to 100 where 0 is no effect and 100 is complete control), Blackgrass: Postemergence, 31 g ai/ha, visually evaluated after 13 to 15 days; for Blackgrass plant response rating / Plant response rating, Blackgrass: postemergence; for Blackgrass plant response rating: 62 g ai/ha, scale 0 to 100
Outline: as §1

ryegrass, Italian = assay: Test C postemergence; assay type: in vivo, Lolium multiflorum; conditions: for Plant response rating (scale of 0 to 100 where 0 is no effect and 100 is complete control), Ryegrass, Italian: Postemergence, 31 g ai/ha, visually evaluated after 13 to 15 days
Outline: as §1

wheat = assay: Test C postemergence; assay type: in vivo, Triticum aestivum; conditions: for Plant response rating (scale of 0 to 100 where 0 is no effect and 100 is complete control), Wheat: Postemergence, 31 g ai/ha, visually evaluated after 13 to 15 days; for Wheat plant response rating / Plant response rating, Wheat: postemergence; for Wheat plant response rating: scale 0 to 100
Outline: as §1

galium = assay: Test C postemergence; assay type: in vivo, Galium aparine; conditions: for Plant response rating (scale of 0 to 100 where 0 is no effect and 100 is complete control), Galium: Postemergence, 31 g ai/ha, visually evaluated after 13 to 15 days; for Galium plant response rating / Plant response rating, Galium: postemergence; for Galium plant response rating: 62 g ai/ha, scale 0 to 100
Outline: as §1

corn = assay: Test C postemergence; assay type: in vivo, Zea mays; conditions: for Plant response rating (scale of 0 to 100 where 0 is no effect and 100 is complete control), Corn: Postemergence, 31 g ai/ha, visually evaluated after 13 to 15 days; for Corn plant response rating / Plant response rating, Corn: postemergence; for Corn plant response rating: 62 g ai/ha, scale 0 to 100
Outline: as §1

crabgrass, large = assay: Test C postemergence; assay type: in vivo, Digitaria sanguinalis; conditions: for Plant response rating (scale of 0 to 100 where 0 is no effect and 100 is complete control), Crabgrass, Large: Postemergence, 31 g ai/ha, visually evaluated after 13 to 15 days; for Crabgrass, Large plant response rating / Plant response rating, Crabgrass, Large: postemergence; for Crabgrass, Large plant response rating: 62 g ai/ha, scale 0 to 100
Outline: as §1

foxtail, giant = assay: Test C postemergence; assay type: in vivo, Setaria faberii; conditions: for Plant response rating (scale of 0 to 100 where 0 is no effect and 100 is complete control), Foxtail, Giant: Postemergence, 31 g ai/ha, visually evaluated after 13 to 15 days; for Foxtail, Giant plant response rating / Plant response rating, Foxtail, Giant: postemergence; for Foxtail, Giant plant response rating: 62 g ai/ha, scale 0 to 100
Outline: as §1

morningglory = assay: Test C postemergence; assay type: in vivo, Ipomoea coccinea; conditions: for Plant response rating (scale of 0 to 100 where 0 is no effect and 100 is complete control), Morningglory: Postemergence, 31 g ai/ha, visually evaluated after 13 to 15 days; for Morningglory plant response rating / Plant response rating, Morningglory: postemergence; for Morningglory plant response rating: 62 g ai/ha, scale 0 to 100
Outline: as §1

ragweed = assay: Test C postemergence; assay type: in vivo, Ambrosia elation; conditions: for Plant response rating (scale of 0 to 100 where 0 is no effect and 100 is complete control), Ragweed: Postemergence, 31 g ai/ha, visually evaluated after 13 to 15 days
Outline: as §1

soybean = assay: Test C postemergence; assay type: in vivo, Glycine max; conditions: for Plant response rating (scale of 0 to 100 where 0 is no effect and 100 is complete control), Soybean: Postemergence, 31 g ai/ha, visually evaluated after 13 to 15 days; for Soybean plant response rating / Plant response rating, Soybean: postemergence
Outline: as §1

barnyardgrass = assay: Test C postemergence; assay type: in vivo, Echinochloa crus-galli; conditions: for Plant response rating (scale of 0 to 100 where 0 is no effect and 100 is complete control), Barnyardgrass: Postemergence, 31 g ai/ha, visually evaluated after 13 to 15 days; for Barnyardgrass plant response rating / Plant response rating, Barnyardgrass: postemergence; for Barnyardgrass plant response rating: 62 g ai/ha, scale 0 to 100
Outline: as §1

waterhemp = assay: Test C postemergence; assay type: in vivo, Amaranthus rudis; conditions: for Plant response rating (scale of 0 to 100 where 0 is no effect and 100 is complete control), Waterhemp: Postemergence, 31 g ai/ha, visually evaluated after 13 to 15 days; for Waterhemp plant response rating / Plant response rating, Waterhemp: postemergence; for Waterhemp plant response rating: scale 0 to 100
Outline: as §1

chickweed = assay: Test C postemergence; assay type: in vivo, Stellaria media; conditions: for Plant response rating (scale of 0 to 100 where 0 is no effect and 100 is complete control), Chickweed: Postemergence, 31 g ai/ha, visually evaluated after 13 to 15 days; for Chickweed plant response rating / Plant response rating, Chickweed: postemergence; for Chickweed plant response rating: 62 g ai/ha, scale 0 to 100
Outline: as §1

[1] = 31 g ai/ha, visual rating, scale 0 to 100 (0 no effect, 100 complete control), 13 to 15 days
[2] = 250 g ai/ha, scale 0 to 100 (0 no effect, 100 complete control)
[3] = 125 g ai/ha, scale 0 to 100, 0 no effect, 100 complete control
[4] = postemergence, 62 g ai/ha, scale 0 to 100
[5] = postemergence, 250 g ai/ha, scale 0 to 100 (0 no effect, 100 complete control)
[6] = postemergence, 125 g ai/ha, scale 0 to 100, 0 no effect, 100 complete control

CCc1cc(C(=O)NC(C)C)nn1Cc1ccnc(C(F)(F)F)c1 [Compound 103]
Plant response rating (scale of 0 to 100), Lambsquarters (lambsquarters; Preemergence, 250 g ai/ha): 100 | Lambsquarters plant response rating (lambsquarters; [1]): 100 | Plant response rating, Lambsquarters (lambsquarters; 62 g ai/ha, 13 to 15 days): 100 | Lambsquarters plant response rating (lambsquarters; 125 g ai/ha, scale 0 to 100, 0 is no effect, 100 is complete control): 100 | Plant response rating (scale of 0 to 100 where 0 is no effect and 100 is complete control), Blackgrass (blackgrass): 10 | Blackgrass plant response rating (blackgrass): 15 | Plant response rating, Blackgrass (blackgrass; [2]): 60 | Plant response rating, Blackgrass (blackgrass; [3]): 40 | Plant response rating (scale of 0 to 100 where 0 is no effect and 100 is complete control), Ryegrass, Italian (ryegrass, Italian): 5 | Ryegrass, Italian plant response rating (ryegrass, Italian; [4]): 5 | Plant response rating, Ryegrass, Italian (ryegrass, Italian; [5]): 45 | Plant response rating, Ryegrass, Italian (ryegrass, Italian; [6]): 5 | Plant response rating (scale of 0 to 100 where 0 is no effect and 100 is complete control), Wheat (wheat): 0 | Wheat plant response rating (wheat; 62 g ai/ha): 5 | Plant response rating, Wheat (wheat; [2]): 15 | Plant response rating, Wheat (wheat; [3]): 5 | Plant response rating (scale of 0 to 100 where 0 is no effect and 100 is complete control), Galium (galium): 50 | Galium plant response rating (galium): 70 | Plant response rating, Galium (galium; [2]): 80 | Plant response rating, Galium (galium; [3]): 75 | Plant response rating (scale of 0 to 100 where 0 is no effect and 100 is complete control), Corn (corn): 10 | Corn plant response rating (corn): 15 | Plant response rating, Corn (corn; [2]): 95 | Plant response rating, Corn (corn; [3]): 35 | Plant response rating (scale of 0 to 100 where 0 is no effect and 100 is complete control), Crabgrass, Large (crabgrass, large): 10 | Crabgrass, Large plant response rating (crabgrass, large): 15 | Plant response rating, Crabgrass, Large (crabgrass, large; [2]): 85 | Plant response rating, Crabgrass, Large (crabgrass, large; [3]): 35 | Plant response rating (scale of 0 to 100 where 0 is no effect and 100 is complete control), Foxtail, Giant (foxtail, giant): 40 | Foxtail, Giant plant response rating (foxtail, giant): 40 | Plant response rating, Foxtail, Giant (foxtail, giant; [2]): 90 | Plant response rating, Foxtail, Giant (foxtail, giant; [3]): 60 | Plant response rating (scale of 0 to 100 where 0 is no effect and 100 is complete control), Morningglory (morningglory): 75 | Morningglory plant response rating (morningglory): 75 | Plant response rating, Morningglory (morningglory; [2]): 100 | Plant response rating, Morningglory (morningglory; [3]): 85 | Plant response rating (scale of 0 to 100 where 0 is no effect and 100 is complete control), Ragweed (ragweed): 35 | Ragweed plant response rating (ragweed; [4]): 70 | Plant response rating, Ragweed (ragweed; [5]): 90 | Plant response rating, Ragweed (ragweed; [6]): 80 | Plant response rating (scale of 0 to 100 where 0 is no effect and 100 is complete control), Soybean (soybean): 45 | Soybean plant response rating (soybean; 62 g ai/ha, scale 0 to 100): 70 | Plant response rating, Soybean (soybean; [2]): 98 | Plant response rating, Soybean (soybean; [3]): 95 | Plant response rating (scale of 0 to 100 where 0 is no effect and 100 is complete control), Barnyardgrass (barnyardgrass): 10 | Barnyardgrass plant response rating (barnyardgrass): 15 | Plant response rating, Barnyardgrass (barnyardgrass; [2]): 95 | Plant response rating, Barnyardgrass (barnyardgrass; [3]): 15 | Plant response rating (scale of 0 to 100 where 0 is no effect and 100 is complete control), Waterhemp (waterhemp): 55 | Waterhemp plant response rating (waterhemp; 62 g ai/ha): 65 | Plant response rating, Waterhemp (waterhemp; [2]): 90 | Plant response rating, Waterhemp (waterhemp; [3]): 65 | Plant response rating (scale of 0 to 100 where 0 is no effect and 100 is complete control), Chickweed (chickweed): 50 | Chickweed plant response rating (chickweed): 60 | Plant response rating, Chickweed (chickweed; [2]): 85 | Plant response rating, Chickweed (chickweed; [3]): 75

CCc1cc(C(=O)NC(C)C)nn1Cc1ccnc(C(F)(F)F)c1 [Compound 139]
Lambsquarters plant response rating (lambsquarters; [1]): 35 | Lambsquarters plant response rating (lambsquarters; 62 g ai/ha, scale 0 to 100 (0 no effect, 100 complete control), 13 to 15 days): 85 | Plant response rating, Lambsquarters (lambsquarters; 125 g ai/ha, 13 to 15 days): 100 | Lambsquarters plant response rating (lambsquarters; 250 g ai/ha, scale 0 to 100, 0 is no effect, 100 is complete control): 100 | Plant response rating (scale of 0 to 100 where 0 is no effect and 100 is complete control), Blackgrass (blackgrass): 20 | Blackgrass plant response rating (blackgrass): 20 | Plant response rating, Blackgrass (blackgrass; [2]): 35 | Plant response rating, Blackgrass (blackgrass; [3]): 20 | Plant response rating (scale of 0 to 100 where 0 is no effect and 100 is complete control), Ryegrass, Italian (ryegrass, Italian): 0 | Plant response rating, Ryegrass, Italian (ryegrass, Italian; [5]): 5 | Plant response rating, Ryegrass, Italian (ryegrass, Italian; [6]): 10 | Plant response rating (scale of 0 to 100 where 0 is no effect and 100 is complete control), Wheat (wheat): 5 | Plant response rating, Wheat (wheat; [2]): 25 | Wheat plant response rating (wheat): 5 | Plant response rating (scale of 0 to 100 where 0 is no effect and 100 is complete control), Galium (galium): 50 | Galium plant response rating (galium): 60 | Plant response rating, Galium (galium; [2]): 70 | Plant response rating, Galium (galium; [3]): 60 | Plant response rating (scale of 0 to 100 where 0 is no effect and 100 is complete control), Corn (corn): 5 | Corn plant response rating (corn): 10 | Plant response rating, Corn (corn; [2]): 20 | Plant response rating, Corn (corn; [3]): 15 | Plant response rating (scale of 0 to 100 where 0 is no effect and 100 is complete control), Crabgrass, Large (crabgrass, large): 10 | Crabgrass, Large plant response rating (crabgrass, large): 10 | Plant response rating, Crabgrass, Large (crabgrass, large; [2]): 20 | Plant response rating, Crabgrass, Large (crabgrass, large; [3]): 15 | Plant response rating (scale of 0 to 100 where 0 is no effect and 100 is complete control), Foxtail, Giant (foxtail, giant): 5 | Foxtail, Giant plant response rating (foxtail, giant): 5 | Plant response rating, Foxtail, Giant (foxtail, giant; [2]): 65 | Plant response rating, Foxtail, Giant (foxtail, giant; [3]): 10 | Plant response rating (scale of 0 to 100 where 0 is no effect and 100 is complete control), Morningglory (morningglory): 60 | Morningglory plant response rating (morningglory): 60 | Plant response rating, Morningglory (morningglory; [2]): 80 | Plant response rating, Morningglory (morningglory; [3]): 90 | Plant response rating (scale of 0 to 100 where 0 is no effect and 100 is complete control), Ragweed (ragweed): 35 | Plant response rating, Ragweed (ragweed; [5]): 25 | Plant response rating, Ragweed (ragweed; [6]): 35 | Plant response rating (scale of 0 to 100 where 0 is no effect and 100 is complete control), Soybean (soybean): 15 | Plant response rating, Soybean (soybean; [2]): 85 | Soybean plant response rating (soybean; [3]): 55 | Plant response rating (scale of 0 to 100 where 0 is no effect and 100 is complete control), Barnyardgrass (barnyardgrass): 10 | Barnyardgrass plant response rating (barnyardgrass): 10 | Plant response rating, Barnyardgrass (barnyardgrass; [2]): 20 | Plant response rating, Barnyardgrass (barnyardgrass; [3]): 10 | Plant response rating (scale of 0 to 100 where 0 is no effect and 100 is complete control), Waterhemp (waterhemp): 30 | Plant response rating, Waterhemp (waterhemp; [2]): 65 | Waterhemp plant response rating (waterhemp): 55 | Plant response rating (scale of 0 to 100 where 0 is no effect and 100 is complete control), Chickweed (chickweed): 60 | Chickweed plant response rating (chickweed): 60 | Plant response rating, Chickweed (chickweed; [2]): 80 | Plant response rating, Chickweed (chickweed; [3]): 65
